This note sets out measurements from patent US20240051985A1, “METTL3 MODULATORS” (ACCENT THERAPEUTICS, INC., priority 2020, published 2024).

One experiment deals with PRMT5-MEP50 (Homo sapiens, UniProt O14744). The experiment is described as follows: PRMT5 assay (3H-SAM flashplate). The note with it: PRMT5 biochemical assay. The method in brief: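 Radiometric methyl-transfer read-out: 3H-methyl transferred to a 3′-biotinylated, acetylated H4 peptide substrate (100 nM) from 3H-SAM (250 nM), captured on streptavidin scintillation plates. Enzyme complex 2.5 nM, pH 8.0 Tris buffer with DTT and Tween, compound preincubation 5 min, 60 min reaction stopped with excess unlabeled SAM.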

Experiment [1] relates to m^6A in cellular mRNA of MOLM-13 cells. Nature of the experiment: m^6A-mRNA LC-MS/MS assay (m^6A cellular assay). It counts as cell-based. The following applies: Homo sapiens, Table 3, 24 hours. As for the experimental part:
5×10^6 MOLM-13 (DSMZ) cells were seeded into 10 cm dishes in RPMI 1640 media containing 10% fetal bovine serum and placed in a humidified tissue culture incubator at 37° C. overnight. Compounds were resuspended in 100% DMSO and dosed into each dish at a fixed concentration to comprise an 8-point dose response with a 4-fold serial dilution ranging from 25 μM to 1.5 nM in 0.25% DMSO final and allowed to incubate for 24 hours in a humidified tissue culture incubator at 37° C. Cells were harvested by centrifugation followed by mRNA extraction using DIRECT Dynabeads mRNA DIRECT kit (Life Technologies). mRNA was quantified on NanoDrop spectrophotometer (Thermo Fisher Scientific) and digested into single nucleosides using Nucleoside Digestion Mix (New England Biolabs). Nucleosides are quantified with retention time on a BEH C18 column (Waters) and the nucleoside-to-base ion mass transition of 282.1-150.1 (m^6A) and 268-136 (A) on an API 6500+ triple quadrupole mass spectrometer. Quantification is performed in comparison with the standard curve, obtained from pure nucleoside standards (Selleck Chemicals) running with the same batch of samples. Percentage m^6A in cellular mRNA is calculated as 100*(m^6A/A).

In another experiment the target is METTL3/METTL14 (Homo sapiens, UniProt Q86U44). Nature of the experiment: METTL3-14 standard enzyme assay (3H-SAM flashplate). The following applies: METTL3 biochemical assay. The method in brief: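 Radiometric methyltransferase read-out: after quenching with excess unlabelled SAM (15 μM), biotinylated RNA was captured on streptavidin flashplates (2 h, 25° C) and counted. Reactions contained 2.5 nM enzyme (5 min preincubation), 100 nM RNA and 100 nM 3H-SAM, ran 30 min in HEPES pH 7.5 buffer with KCl, MgCl2, DTT.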

The target of a further experiment is T1, FLT3 (Homo sapiens, UniProt P36888).
T1 sequence (P36888 27-993): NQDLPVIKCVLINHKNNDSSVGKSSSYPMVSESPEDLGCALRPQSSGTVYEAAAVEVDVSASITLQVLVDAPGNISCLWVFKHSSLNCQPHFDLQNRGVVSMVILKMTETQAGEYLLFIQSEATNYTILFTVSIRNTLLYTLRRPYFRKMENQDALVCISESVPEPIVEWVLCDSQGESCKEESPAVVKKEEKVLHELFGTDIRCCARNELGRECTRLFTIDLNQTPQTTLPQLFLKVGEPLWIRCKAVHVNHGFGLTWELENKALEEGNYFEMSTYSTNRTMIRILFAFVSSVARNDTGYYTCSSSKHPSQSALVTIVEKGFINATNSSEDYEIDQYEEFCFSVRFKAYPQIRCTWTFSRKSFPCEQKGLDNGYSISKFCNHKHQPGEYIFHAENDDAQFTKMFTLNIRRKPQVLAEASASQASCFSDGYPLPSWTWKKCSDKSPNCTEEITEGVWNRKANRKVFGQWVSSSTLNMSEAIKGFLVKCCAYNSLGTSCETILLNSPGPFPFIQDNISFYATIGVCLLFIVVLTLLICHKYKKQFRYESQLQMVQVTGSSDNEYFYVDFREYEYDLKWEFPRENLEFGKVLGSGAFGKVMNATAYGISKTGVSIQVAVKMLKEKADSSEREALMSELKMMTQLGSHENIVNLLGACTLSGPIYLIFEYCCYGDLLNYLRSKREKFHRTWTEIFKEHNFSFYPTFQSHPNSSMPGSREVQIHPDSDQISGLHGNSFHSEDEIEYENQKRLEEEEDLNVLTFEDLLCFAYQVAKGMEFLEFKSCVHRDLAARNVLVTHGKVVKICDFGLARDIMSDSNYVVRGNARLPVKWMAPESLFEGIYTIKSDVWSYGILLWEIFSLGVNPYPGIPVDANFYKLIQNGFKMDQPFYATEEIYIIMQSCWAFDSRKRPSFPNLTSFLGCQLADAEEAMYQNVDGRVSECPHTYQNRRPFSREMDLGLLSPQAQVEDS
The experiment is described as follows: FLT3 LanthaScreen assay. It counts as biochemical. The note with it: Table 4. The essentials:
(§1)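 Buffer 50 mM Hepes pH 7.5, 2 mM DTT, 10 mM MgCl2, 0.01% Tween, 0.01% BSA; FLT3 ([…].) or FLT3-ITD ([…].) preincubated 10 min with compound. Fluorescein-poly GT (200 nM) and ATP (57 μM) added, 40 min at ambient temperature; stopped with EDTA and Tb-anti-pTyr pY20, TR-FRET read 495/520 nm.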
On the technique in general: TR-FRET usually uses a lanthanide donor and a delayed reading to cut background.

Another experiment concerns the target T2, FLT3-ITD (Homo sapiens, UniProt P36888).
T2 sequence (P36888 1-993): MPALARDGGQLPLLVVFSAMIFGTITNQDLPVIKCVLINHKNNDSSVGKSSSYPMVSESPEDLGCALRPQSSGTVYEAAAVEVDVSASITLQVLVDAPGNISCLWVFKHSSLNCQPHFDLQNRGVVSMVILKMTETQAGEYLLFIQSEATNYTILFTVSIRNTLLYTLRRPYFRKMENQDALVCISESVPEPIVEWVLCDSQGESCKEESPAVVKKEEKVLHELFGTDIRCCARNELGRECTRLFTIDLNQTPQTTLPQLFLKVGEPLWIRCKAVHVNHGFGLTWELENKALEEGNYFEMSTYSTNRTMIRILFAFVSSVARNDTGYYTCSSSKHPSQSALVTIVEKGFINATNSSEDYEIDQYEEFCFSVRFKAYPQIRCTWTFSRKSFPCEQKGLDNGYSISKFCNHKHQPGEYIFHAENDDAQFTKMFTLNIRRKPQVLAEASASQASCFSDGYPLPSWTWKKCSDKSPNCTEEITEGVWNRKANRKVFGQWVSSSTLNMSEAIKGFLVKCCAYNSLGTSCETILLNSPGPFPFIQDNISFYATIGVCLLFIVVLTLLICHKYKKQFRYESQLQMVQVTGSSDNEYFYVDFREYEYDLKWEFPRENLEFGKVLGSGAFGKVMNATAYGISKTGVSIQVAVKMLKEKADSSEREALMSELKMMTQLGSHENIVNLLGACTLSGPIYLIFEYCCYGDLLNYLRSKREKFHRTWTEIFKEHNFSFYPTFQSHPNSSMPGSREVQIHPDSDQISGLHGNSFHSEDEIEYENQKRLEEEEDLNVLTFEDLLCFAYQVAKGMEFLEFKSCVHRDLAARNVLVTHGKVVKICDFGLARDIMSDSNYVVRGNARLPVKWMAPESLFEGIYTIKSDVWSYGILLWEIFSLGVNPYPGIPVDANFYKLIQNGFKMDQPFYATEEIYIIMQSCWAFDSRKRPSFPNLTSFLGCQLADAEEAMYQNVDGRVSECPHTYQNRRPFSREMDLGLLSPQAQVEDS
The experiment is described as follows: FLT3-ITD LanthaScreen assay. The class given is biochemical. The note with it: Table 4. The essentials: as §1

A value given as a limit tells only on which side of the number the result lay.

Sequence of PRMT5-MEP50 (O14744 whole entry): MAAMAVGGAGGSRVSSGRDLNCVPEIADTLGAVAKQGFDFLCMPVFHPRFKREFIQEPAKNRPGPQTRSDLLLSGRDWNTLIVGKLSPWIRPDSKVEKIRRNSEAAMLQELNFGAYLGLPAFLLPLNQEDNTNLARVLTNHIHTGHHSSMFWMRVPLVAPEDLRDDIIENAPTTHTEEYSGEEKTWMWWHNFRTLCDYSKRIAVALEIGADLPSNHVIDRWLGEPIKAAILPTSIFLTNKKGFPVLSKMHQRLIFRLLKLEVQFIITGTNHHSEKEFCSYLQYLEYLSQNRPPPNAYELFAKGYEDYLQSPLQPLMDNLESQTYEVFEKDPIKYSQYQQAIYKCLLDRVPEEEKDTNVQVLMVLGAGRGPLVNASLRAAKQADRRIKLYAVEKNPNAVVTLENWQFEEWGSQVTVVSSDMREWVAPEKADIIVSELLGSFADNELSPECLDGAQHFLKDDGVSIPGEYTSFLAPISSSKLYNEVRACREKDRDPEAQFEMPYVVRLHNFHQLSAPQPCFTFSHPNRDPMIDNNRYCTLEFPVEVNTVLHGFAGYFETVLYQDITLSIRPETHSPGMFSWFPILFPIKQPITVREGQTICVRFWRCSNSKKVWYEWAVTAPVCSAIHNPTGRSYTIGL
Sequence of PRMT5-MEP50 (Q9BQA1 whole entry partner): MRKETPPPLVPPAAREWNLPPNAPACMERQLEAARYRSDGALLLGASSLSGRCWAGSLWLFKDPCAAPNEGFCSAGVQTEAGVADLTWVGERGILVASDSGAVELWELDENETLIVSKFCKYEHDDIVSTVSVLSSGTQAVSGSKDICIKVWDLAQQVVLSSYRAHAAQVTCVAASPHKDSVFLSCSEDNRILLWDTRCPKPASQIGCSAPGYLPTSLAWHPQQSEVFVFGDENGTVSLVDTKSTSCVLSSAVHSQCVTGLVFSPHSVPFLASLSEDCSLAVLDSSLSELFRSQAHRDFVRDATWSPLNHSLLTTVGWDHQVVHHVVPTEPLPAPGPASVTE
Sequence of METTL3/METTL14 (Q86U44 whole entry, species assumed): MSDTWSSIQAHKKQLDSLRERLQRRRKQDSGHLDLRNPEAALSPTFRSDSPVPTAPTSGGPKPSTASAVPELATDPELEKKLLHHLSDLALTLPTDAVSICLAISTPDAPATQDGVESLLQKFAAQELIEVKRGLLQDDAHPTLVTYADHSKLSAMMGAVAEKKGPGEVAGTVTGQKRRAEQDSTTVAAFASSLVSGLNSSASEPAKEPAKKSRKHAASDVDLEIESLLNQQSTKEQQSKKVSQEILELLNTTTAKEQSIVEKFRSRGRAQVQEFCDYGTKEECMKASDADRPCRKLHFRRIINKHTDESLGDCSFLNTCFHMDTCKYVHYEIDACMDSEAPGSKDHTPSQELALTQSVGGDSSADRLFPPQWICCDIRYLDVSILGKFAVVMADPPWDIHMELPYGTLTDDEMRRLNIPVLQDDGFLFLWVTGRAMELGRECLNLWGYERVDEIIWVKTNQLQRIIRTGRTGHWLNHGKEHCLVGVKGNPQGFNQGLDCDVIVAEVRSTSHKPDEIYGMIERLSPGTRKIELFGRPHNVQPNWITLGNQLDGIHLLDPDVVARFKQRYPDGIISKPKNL
Sequence of METTL3/METTL14 (Q9HCE5 whole entry partner, species assumed): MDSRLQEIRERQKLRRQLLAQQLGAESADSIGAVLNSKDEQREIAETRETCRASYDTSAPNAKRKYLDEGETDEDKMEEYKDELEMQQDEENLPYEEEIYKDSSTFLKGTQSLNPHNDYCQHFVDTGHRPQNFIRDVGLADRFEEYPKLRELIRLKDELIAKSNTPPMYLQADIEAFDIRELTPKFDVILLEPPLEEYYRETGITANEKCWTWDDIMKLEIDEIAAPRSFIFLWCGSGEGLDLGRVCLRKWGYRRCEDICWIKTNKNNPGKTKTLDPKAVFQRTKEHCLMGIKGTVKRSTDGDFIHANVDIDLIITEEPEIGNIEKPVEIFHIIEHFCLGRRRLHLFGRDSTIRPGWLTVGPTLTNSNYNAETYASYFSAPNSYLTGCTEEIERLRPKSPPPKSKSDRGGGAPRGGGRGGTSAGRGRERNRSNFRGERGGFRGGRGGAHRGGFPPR

By IC50 is commonly meant the concentration that inhibits the measured activity by half. For the compound `Cn1ccc(-c2cn([C@@H]3O[C@H](C(=O)Nc4ccc5ccc(N6CCC6)nc5c4)[C@@H](O)[C@H]3O)c3ncnc(N)c23)n1` [Compound I-10, (2S,3S,4R,5R)-5-[4-amino-5-(1-methyl-1H-pyrazol-3-yl)-7H-pyrrolo[2,3-d]pyrimidin-7-yl]-N-[2-(azetidin-1-yl)quinolin-7-yl]-3,4-dihydroxyoxolane-2-carboxamide], the IC50 against PRMT5-MEP50 (Table 3) is 10 to 100 nM; in experiment [1] it was below 1000 nM; on METTL3/METTL14 (Table 3), below 10 nM.
For the compound `C[C@H](NC(=O)[C@H]1O[C@@H](n2cc(-c3ccn(C)n3)c3c(N)ncnc32)[C@H](O)[C@@H]1O)C1CCNCC1` [Compound I-195], the IC50 against PRMT5-MEP50 (Table 4) is 100 to 1000 nM; against FLT3, at least 1000 nM; against FLT3-ITD, at least 1000 nM; at METTL3/METTL14 (Table 4), 100 to 1000 nM.
On to `Cn1ccc(-c2cn([C@@H]3O[C@H](C(=O)N[C@H]4CCCNC4)[C@@H](O)[C@H]3O)c3ncnc(N)c23)n1` [Compound I-219], for which the IC50 against PRMT5-MEP50 (Table 4) is 10 to 100 nM; at FLT3, at least 1000 nM; on FLT3-ITD, at least 1000 nM; on METTL3/METTL14 (Table 4), 100 to 1000 nM.
Regarding `CN1CCC(N(CCCN)C(=O)[C@H]2O[C@@H](n3cc(-c4ccn(C)n4)c4c(N)ncnc43)[C@H](O)[C@@H]2O)CC1` [Compound I-146], the IC50 on PRMT5-MEP50 (Table 4) was 10 to 100 nM; on FLT3, at least 1000 nM; against FLT3-ITD, at least 1000 nM; at METTL3/METTL14 (Table 4) it was 10 to 100 nM.
Turning to `CN1CCC(N(CC[C@H](N)C(=O)O)C(=O)[C@H]2O[C@@H](n3cc(-c4ccn(C)n4)c4c(N)ncnc43)[C@H](O)[C@@H]2O)CC1` [Compound I-31, (S)-2-amino-4-((2S,3S,4R,5R)-5-(4-amino-5-(1-methyl-1H-pyrazol-3-yl)-7H-pyrrolo[2,3-d]pyrimidin-7-yl)-3,4-dihydroxy-N-(1-methylpiperidin-4-yl)tetrahydrofuran-2-carboxamido)butanoic acid], the IC50 on PRMT5-MEP50 (Table 3) is below 10 nM; at FLT3 it was at least 1000 nM; on FLT3-ITD, at least 1000 nM; against METTL3/METTL14 (Table 3), below 10 nM.
As for `C[C@H]1C[C@H](NC(=O)[C@H]2O[C@@H](n3cc(-c4ccn(C)n4)c4c(N)ncnc43)[C@H](O)[C@@H]2O)CCN1` [Compound I-190], the IC50 at PRMT5-MEP50 (Table 4), against FLT3, on FLT3-ITD and at METTL3/METTL14 (Table 4) was at least 1000 nM throughout.
Consider `CNc1ccc2ccc(NC(=O)[C@H]3O[C@@H](n4cc(-c5ccn(C)n5)c5c(N)ncnc54)[C@H](O)[C@@H]3O)cc2n1` [Compound I-32, (2S,3S,4R,5R)-5-[4-amino-5-(1-methyl-1H-pyrazol-3-yl)-7H-pyrrolo[2,3-d]pyrimidin-7-yl]-3,4-dihydroxy-N-[2-(methylamino)quinolin-7-yl]oxolane-2-carboxamide], for which the IC50 was below 10 nM at PRMT5-MEP50 (Table 3), below 1000 nM in experiment [1] and below 10 nM against METTL3/METTL14 (Table 3).
`Cn1ccc(-c2cn([C@@H]3O[C@H](C(N)=O)[C@@H](O)[C@H]3O)c3ncnc(N)c23)n1` [Compound I-54]: the IC50 was 100 to 1000 nM at PRMT5-MEP50 (Table 4), at least 1000 nM on FLT3, at least 1000 nM on FLT3-ITD and at least 1000 nM against METTL3/METTL14 (Table 4).
On to `CN1[C@@H]2CC[C@H]1C[C@H](NC(=O)[C@H]1O[C@@H](n3cc(-c4ccn(C)n4)c4c(N)ncnc43)[C@H](O)[C@@H]1O)C2` [Compound I-205], for which the IC50 against PRMT5-MEP50 (Table 4) is 100 to 1000 nM; at FLT3 it was at least 1000 nM; against FLT3-ITD it was at least 1000 nM; against METTL3/METTL14 (Table 4) it was 100 to 1000 nM.
Turning to `CNc1ccc2ccc(NC(=O)[C@H]3O[C@@H](n4cc(-c5ccn(C)n5)c5c(N)ncnc54)C[C@@H]3O)cc2n1` [Compound I-35], the IC50 against PRMT5-MEP50 (Table 4) was 10 to 100 nM; against FLT3, at least 1000 nM; on FLT3-ITD it was at least 1000 nM; on METTL3/METTL14 (Table 4), below 10 nM.
